The values below are quoted from earlier work in PMC3362725, “An open-label, phase 1 study evaluating safety, tolerability, and pharmacokinetics of linifanib (ABT-869) in Japanese patients with solid tumors” (Cancer Chemotherapy and Pharmacology, 2012).

Where two headings read alike, the source gives them in different places.

On the set-up of data set [1]: method as in PMID 19720910. The settings on record: non-Japanese Asian patients, 0.10–0.30 mg/kg single dose, mean ± SD, N 31; calculated from ref 14; cited from earlier work.
On the set-up of data set [2]: method as in earlier work. The settings on record: Caucasian patients, 0.25 mg/kg single dose, mean ± SD, N 13; cited from earlier work.
On the set-up of data set [3]: method as in PMID 19720910. The settings on record: cited from earlier work.

As for `Cc1ccc(F)c(NC(=O)Nc2ccc(-c3cccc4[nH]nc(N)c34)cc2)c1` [linifanib, N-(4-(3-amino-1H-indazol-4-yl)phenyl)-N’-(2-fluoro-5-methylphenyl)urea], in data set [1], the “DN AUC24” value was 0.25 ± 0.10 µg·h/mL/mg, the “DN C max” value was 0.020 ± 0.008 µg/mL/mg and the T max is given as 2.94 ± 1.27 h. In data set [2], the “DN AUC24” value is 0.21 ± 0.04 µg·h/mL/mg, the “DN C max” value was 0.018 ± 0.005 µg/mL/mg and the T max was 1.77 ± 0.44 h. For the same compound, the “patients with Grade 3 hypertension” value in data set [3] (non-Japanese Asian patients, recommended phase 2 dose) is 8%. Moreover, the “recommended phase 2 dose” value in data set [3] (prior phase 1 study in non-Japanese) is recorded as 0.25 mg/kg.
